The text below walks through data of patent publication US11655239B2 (SHANGHAI INSTITUTE OF MATERIAL MEDICA, CHINESE ACADEMY OF …, priority 2019, dated 2023).

Series [1] has as its system ERK1/2, Akt and p38. Nature of the series: Phosphorylation level of downstream mediators of TGF-β (Western Blot). The format is cell-based, human. Conditions: MRC-5, TGF-β1 treatment. How it is done: 1) Preparation of cell protein samples: the cell culture liquid was discarded, wash was performed once with PBS, and samples were collected by adding 1×SDS-Loading. after the samples were collected, they were placed in a metal bath at 100° C., and the samples were boiled for 10 minutes, and then the samples were stored at 4° C. for waiting for subsequent test.
2) Gel preparation and sample loading: according to the molecular weight of the detected protein, different concentrations of separation gel were selected. after filling the 1× electrophoresis buffer, an equal volume of protein sample 4 μl and protein marker were added on the far left to right in sequence. […]
8) Secondary antibodies: the film with the primary antibodies was rewarmed and incubated for about half an hour, and then the primary antibodies were recovered and the film was washed quickly with TBST solution 3 times, 10 minutes each time. […] The dilution ratio of the secondary antibody dedicated for DDR2 was 1:5000; The dilution ratio for the rest of the secondary antibodies were 1:8000, ready for use. […]
In addition, the phosphorylation level of the main downstream mediators of TGF-β was analyzed by Western Blot. […]
(In general: In western blotting, separated proteins are transferred to a membrane and probed.)

In series [2] the target is Abl (Homo sapiens (Human), UniProt P00519). The experiment in a line: Enzyme selectivity test (ELISA), Abl. The format is biochemical. How it is done:
(§1) 1) Enzyme reaction substrate Poly(Glu, Tyr) 4:1 was diluted to 20 μg/mL with potassium-free PBS (10 mM sodium phosphate buffer, 150 mM NaCl, pH 7.2-7.4), and the microtiter plate was coated with 125 μL/well and placed at 37° C. for 12-16 hours of reaction. The liquid in the well was discard. The plate was washed three times with T-PBS (potassium-free PBS containing 0.1% Tween-20, 200 μL/well), 5 minutes each time. The ELISA plate was dried in an oven at 37° C. for 1 to 2 hours.
(§2) 2) Reaction buffer (50 mM HEPES pH 7.4, 50 mM MgCl2, 0.5 mM MnCl2, 0.2 mM Na3VO4, 1 mM DTT) diluted ATP solution (49 μL) was added to each well, 1 μL of the compound to be tested was added to each well, and then 50 μL of DDR2 kinase domain recombinant protein diluted in the reaction buffer was added to start the reaction. Two control wells without ATP were set in each experiment. The plate placed on a shaker (100 rpm) at 37° C. for 1 hour of reaction. The liquid in the well was discarded and the plate was washed three times with T-PBS.
(§3) 3) Antibody PY99 dilution solution (the antibody was diluted 1:500 with T-PBS containing BSA 5 mg/mL) was added at 100 μL/well, and shaken on a shaker at 37° C. for 0.5 hour of reaction. The liquid in the well was discarded and the plate was washed three times with T-PBS.
(§4) 4) Horseradish peroxidase labeled goat anti-murine secondary antibody dilution solution (the antibody is diluted 1:2000 with T-PBS containing BSA 5 mg/ml) was added at 100 μL/well, and shaken on a shaker at 37° C. for 0.5 hour of reaction. The liquid in the well was discarded and the plate was washed three times with T-PBS.
(§5) 5) 2 mg/ml of OPD color developing solution [diluted with 0.1 M citric acid-sodium citrate buffer (pH=5.4) containing 0.03% H2O2] was added at 100 μL/well and reacted for 1 to 10 minutes at 25° C. in the dark.
(§6) 6) 2M H2SO4 was added at 50 μL/well to stop the reaction, and a tunable wavelength microplate reader VERSAmax was used for reading at a wavelength of 490 nm.
(§7) The IC50 value was obtained by four-parameter regression using the software that came with the microplate reader. […]

For series [3], the target named is AXL (Homo sapiens (Human), UniProt P30530). The experiment in a line: Enzyme selectivity test (ELISA), AXL. The format is biochemical. How it is done: as §1, §2, §3, §4, §5, §6, §7
Sequence of AXL (P30530 26-894, species assumed): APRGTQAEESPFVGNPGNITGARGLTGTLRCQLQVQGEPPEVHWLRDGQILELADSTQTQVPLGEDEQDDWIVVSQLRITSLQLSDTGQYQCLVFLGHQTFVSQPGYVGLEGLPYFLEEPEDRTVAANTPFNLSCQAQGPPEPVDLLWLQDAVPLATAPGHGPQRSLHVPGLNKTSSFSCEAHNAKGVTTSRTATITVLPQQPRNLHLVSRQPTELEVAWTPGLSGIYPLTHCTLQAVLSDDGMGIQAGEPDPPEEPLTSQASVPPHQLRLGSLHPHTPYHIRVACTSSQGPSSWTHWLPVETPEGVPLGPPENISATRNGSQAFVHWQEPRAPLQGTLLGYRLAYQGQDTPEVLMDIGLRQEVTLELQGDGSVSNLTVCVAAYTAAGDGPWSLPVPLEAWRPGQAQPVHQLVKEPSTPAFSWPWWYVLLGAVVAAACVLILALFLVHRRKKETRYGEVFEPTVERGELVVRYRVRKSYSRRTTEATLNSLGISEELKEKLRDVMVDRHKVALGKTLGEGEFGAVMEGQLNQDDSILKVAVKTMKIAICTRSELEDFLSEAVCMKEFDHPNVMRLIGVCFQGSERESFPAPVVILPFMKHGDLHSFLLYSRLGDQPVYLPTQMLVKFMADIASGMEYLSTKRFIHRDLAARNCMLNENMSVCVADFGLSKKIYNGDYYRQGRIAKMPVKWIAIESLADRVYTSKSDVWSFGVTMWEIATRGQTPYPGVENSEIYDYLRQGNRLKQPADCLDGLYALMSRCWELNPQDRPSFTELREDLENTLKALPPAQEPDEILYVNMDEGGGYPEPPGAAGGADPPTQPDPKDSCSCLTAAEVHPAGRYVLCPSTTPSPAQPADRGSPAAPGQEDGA
Background: In an ELISA, binding on a coated surface is turned into a signal by an enzyme label.

In series [4] the target is KDR (Homo sapiens (Human), UniProt P35968). Nature of the series: Enzyme selectivity test (ELISA), KDR. The format is biochemical. As to the method:
as §1, §2, §3, §4, §5, §6, §7

Series [5] has as its system bronchial epithelial cell line Beas-2B. The experiment in a line: Cytotoxic activity test (MTS), Beas-2B. The format is cell-based, human. Conditions: 10 μM. As to the method:
Experimental objective: The cytotoxic activity of compound S15 on bronchial epithelial cell line Beas-2B and lung fibroblast cell line MRC-5 was tested.
1) The human bronchial epithelial cell line Beas-2B and the human embryonic lung fibroblast cell line MRC-5 were collected, and inoculated at a certain density (about 5000-10000 cells) on a 96-well plate (the edge wells were filled with sterile water or PBS). A control was set on each plate (100 μL of culture medium was added);
2) The plate was incubated overnight at 37° C., 5% CO2. The plate was turned upside down and observed under the microscope.
3) The solutions of different concentrations of the compounds to be tested were added to each well, and a control well (culture medium and MTS solution with cells but no drug) and a blank well (without cells, medium and MTS solution) were set, 3 to 5 repetition wells were set for each group. Incubation was performed at 37° C. for 48-72 hours.
4) 10 μL/well of MTS/PMS (20:1, Promega Corp) solution was added to each well containing 100 μL of culture medium, and then the plate was gently shaken. The plate was incubated at 37° C. for 2 to 4 hours.
5) M5 microplate reader (Molecular Device, USA) was used to measure the absorbance of the solution at 490 nm. […]

Sequence of KDR (P35968 20-1356, species assumed): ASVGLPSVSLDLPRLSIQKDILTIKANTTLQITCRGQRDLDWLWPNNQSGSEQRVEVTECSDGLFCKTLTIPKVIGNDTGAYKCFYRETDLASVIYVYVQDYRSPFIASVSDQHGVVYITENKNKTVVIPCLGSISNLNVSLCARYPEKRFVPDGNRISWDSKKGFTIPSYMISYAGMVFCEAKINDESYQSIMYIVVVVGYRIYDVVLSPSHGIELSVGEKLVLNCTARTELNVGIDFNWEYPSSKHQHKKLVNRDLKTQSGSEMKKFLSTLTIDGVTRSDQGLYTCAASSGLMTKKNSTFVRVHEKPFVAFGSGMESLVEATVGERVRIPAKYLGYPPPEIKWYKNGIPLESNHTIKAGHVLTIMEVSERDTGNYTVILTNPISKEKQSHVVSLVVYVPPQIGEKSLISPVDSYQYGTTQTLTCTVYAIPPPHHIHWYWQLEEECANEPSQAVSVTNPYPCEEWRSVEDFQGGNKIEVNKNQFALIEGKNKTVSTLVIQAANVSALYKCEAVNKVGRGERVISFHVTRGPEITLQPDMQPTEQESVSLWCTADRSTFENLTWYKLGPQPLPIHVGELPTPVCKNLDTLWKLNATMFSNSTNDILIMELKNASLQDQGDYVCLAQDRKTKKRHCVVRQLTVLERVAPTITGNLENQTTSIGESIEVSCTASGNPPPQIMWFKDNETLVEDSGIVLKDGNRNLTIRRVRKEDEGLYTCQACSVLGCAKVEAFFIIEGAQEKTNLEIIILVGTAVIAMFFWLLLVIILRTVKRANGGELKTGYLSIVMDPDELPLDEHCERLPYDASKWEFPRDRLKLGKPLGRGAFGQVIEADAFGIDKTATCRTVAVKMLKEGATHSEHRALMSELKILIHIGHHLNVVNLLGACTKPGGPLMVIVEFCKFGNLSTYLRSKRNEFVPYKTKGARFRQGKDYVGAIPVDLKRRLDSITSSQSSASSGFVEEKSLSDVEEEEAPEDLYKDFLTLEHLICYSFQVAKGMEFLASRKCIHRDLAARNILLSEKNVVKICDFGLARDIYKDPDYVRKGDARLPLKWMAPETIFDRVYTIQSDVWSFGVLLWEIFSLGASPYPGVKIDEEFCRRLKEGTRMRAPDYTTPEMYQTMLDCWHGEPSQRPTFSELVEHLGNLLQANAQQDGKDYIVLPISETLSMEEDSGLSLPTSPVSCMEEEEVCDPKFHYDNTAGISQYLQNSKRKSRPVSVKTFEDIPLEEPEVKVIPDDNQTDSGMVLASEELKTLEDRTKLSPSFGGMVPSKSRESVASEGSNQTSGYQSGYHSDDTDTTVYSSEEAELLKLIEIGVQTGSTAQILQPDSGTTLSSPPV
Sequence of Abl (P00519 whole entry, species assumed): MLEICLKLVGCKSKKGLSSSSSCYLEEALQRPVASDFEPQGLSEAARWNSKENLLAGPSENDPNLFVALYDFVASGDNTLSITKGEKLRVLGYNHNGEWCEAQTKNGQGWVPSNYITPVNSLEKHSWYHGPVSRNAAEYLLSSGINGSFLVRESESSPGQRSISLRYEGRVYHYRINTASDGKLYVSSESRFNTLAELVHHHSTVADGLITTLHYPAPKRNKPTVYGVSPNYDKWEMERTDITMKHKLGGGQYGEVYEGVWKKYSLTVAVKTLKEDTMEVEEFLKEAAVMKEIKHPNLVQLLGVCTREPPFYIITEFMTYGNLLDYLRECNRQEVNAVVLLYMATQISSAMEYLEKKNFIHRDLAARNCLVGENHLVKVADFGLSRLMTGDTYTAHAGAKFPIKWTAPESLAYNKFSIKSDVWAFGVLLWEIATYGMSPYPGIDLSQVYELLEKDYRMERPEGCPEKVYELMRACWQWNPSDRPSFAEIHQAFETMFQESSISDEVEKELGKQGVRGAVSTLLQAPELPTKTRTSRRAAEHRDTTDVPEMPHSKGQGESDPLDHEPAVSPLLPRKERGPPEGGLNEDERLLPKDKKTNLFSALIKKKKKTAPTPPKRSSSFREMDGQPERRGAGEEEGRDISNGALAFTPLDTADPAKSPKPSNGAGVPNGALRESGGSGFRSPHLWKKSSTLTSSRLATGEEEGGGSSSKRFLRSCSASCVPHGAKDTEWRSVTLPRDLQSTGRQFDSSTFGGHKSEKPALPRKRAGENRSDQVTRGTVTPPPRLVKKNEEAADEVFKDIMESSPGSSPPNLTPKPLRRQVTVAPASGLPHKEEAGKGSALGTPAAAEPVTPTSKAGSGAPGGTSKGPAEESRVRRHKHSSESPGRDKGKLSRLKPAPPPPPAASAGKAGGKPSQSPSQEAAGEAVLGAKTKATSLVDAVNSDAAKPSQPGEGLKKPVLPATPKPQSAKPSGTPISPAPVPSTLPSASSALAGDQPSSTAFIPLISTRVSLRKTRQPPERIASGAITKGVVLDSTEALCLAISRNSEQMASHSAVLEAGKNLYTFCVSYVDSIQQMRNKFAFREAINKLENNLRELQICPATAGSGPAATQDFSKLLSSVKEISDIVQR

Regarding `O=C(Nc1cccc(C(F)(F)F)c1)c1ccc(C2CC2)c(-c2ccc3nc(Nc4cnn(C5CC5)c4)ncc3c2)c1` [Compound S15, 4-cyclopropyl-3-(2-((1-cyclopropyl-1H-pyrazol-4-yl)amino)quinazolin-6-yl)-N-(3-(trifluoromethyl)phenyl)benzamide], the “phosphorylation level of downstream ERK1/2, Akt and p38” value in series [1] is “significantly inhibit the phosphorylation level of downstream ERK1/2, Akt and p38”. The half-inhibitory concentration (IC50) in series [2] was less than 10 nM; in series [3] it was more than 1000 nM; in series [4], less than 10 nM. Moreover, the “cytotoxic activity on Beas-2B” value in series [5] is recorded as “almost no toxicity”.

As usually defined, the IC50 is the point on the concentration scale where inhibition reaches its midpoint.
